Assay results from patent publication US12350259B2, “Methods of treating migraine” (Allergan Pharmaceuticals International Limited, priority 2021, dated 2025).
Read-outs that look alike come from different tables or passages of the source.

Columns and labels:
[1] = Atogepant-topiramate interaction study, cohort 2: topiramate steady-state PK; format: in vivo, human; conditions: for AUC / Cmax: both sexes, human, plasma
Experimental: An open-label, single-center, multiple-dose 2-cohort, phase 1 trial was carried out to assess the potential of a PK DDI between atogepant and topiramate in healthy adult participants. Eligible participants were enrolled either in cohort 1 to evaluate the effect of topiramate 100 mg twice daily on the PK of atogepant […] once daily or in cohort 2 to evaluate the effect of atogepant 60 mg once daily on the PK of topiramate 100 mg twice daily. Participants in cohort 1 received atogepant alone on days 1-7 and atogepant plus topiramate on days 8-17. Participants in cohort 2 received topiramate alone on days 1-10 and topiramate plus atogepant on days 11-17.
The duration of the study was 25 days (±2 days), which included day −1 through the follow-up visit and excluded the screening period. The screening period was up to 21 days before day 1 and the intervention period was a total of 19 days, at which point the end of dosing visit was conducted. Cerebrospinal fluid (CSF) samples for measurement of atogepant concentration were collected via lumbar puncture in a subset of consenting participants in cohort 1. CSF samples were collected once from individual participants in the CSF collection subset at 2 or 6 hours after the morning dose on day 6 for cohort 1. Clinical laboratory tests were performed at the follow-up visit, which was conducted on day 24 (7 [±2] days after the last dose of study medication.
Participants were excluded if they had clinically significant abnormal electrocardiogram (ECG) results or QT prolongation (QTcF ≥450 msec for males, ≥470 for females), or any clinical condition or previous surgery that may affect the absorption, distribution, biotransformation, or excretion of atogepant or topiramate.
The primary endpoints were area under the plasma concentration-time curve during dosing interval at steady state (AUC0-tau,ss) and maximum plasma drug concentration at steady state (Cmax,ss) of atogepant and topiramate when coadministered and when administered alone. Additional PK parameters included time of maximum plasma drug concentration at steady state (Tmax,ss), average plasma drug concentration at steady state (Cavg,ss), and minimum plasma drug concentration at steady state (Cmin,ss) of topiramate and atogepant when coadministered and when administered alone.

[2] = Atogepant-topiramate interaction study: safety and tolerability; format: in vivo, human
[3] = topiramate; cited from earlier work
[4] = Atogepant-itraconazole interaction study: safety and tolerability; format: in vivo, human; conditions: itraconazole alone
Source text: The primary objective of this study was to assess the effects of multiple dose itraconazole on the pharmacokinetics of a single dose of atogepant. The primary endpoints were PK parameters of atogepant derived from plasma concentrations. The secondary objectives of the study were to assess the safety and tolerability of atogepant and itraconazole given alone and in combination, and to establish the correlation between concentrations of atogepant in dried blood sample (DBS) (obtained via finger stick) and plasma. The secondary endpoints included AEs, clinical laboratory parameters, vital signs, ECG, and physical examination, and correlation of concentrations of atogepant in DBS and plasma. Subjects who satisfied the inclusion and exclusion criteria were assigned to a single fixed-treatment sequence in which they received Treatment A followed by Treatment B; there was a 7-day washout period between treatments. • Treatment A: Single oral 60 mg dose of atogepant (tablet) under fasted conditions on Day 1 • Treatment B • Days 8-14: Itraconazole 200 mg (tablet) orally once daily under fed conditions. • Day 15: Itraconazole 200 mg coadministered with atogepant 60 mg (tablet) under fasted conditions. • Days 16 to 17: Itraconazole 200 mg (tablet) once daily under fed conditions.

[5] = Atogepant-quinidine gluconate interaction study: safety; format: in vivo, human; conditions: during quinidine gluconate administration; 33 enrolled
Source text: Atogepant PK parameters calculated were peak plasma concentration (Cmax); time to Cmax (tmax); and area under plasma concentration—time curve from time 0 to time t (AUC0-t) and infinity (AUC0-∞). […] Safety assessments included clinical laboratory values, vital signs, electrocardiograms, and […] adverse events (TEAEs).

[6] = topiramate 100 mg BID + atogepant 60 mg QD, day 17
[7] = topiramate 100 mg BID alone, day 10
[8] = with atogepant coadministration

CC1(C)O[C@@H]2[C@@H](CO[C@@]3(COS(N)(=O)=O)OC(C)(C)O[C@@H]23)O1 [topiramate]
AUC ([1]; 100 mg, Topiramate Alone, read-out: AUC0-tau,ss Geometric LSM): 74400 ng·h/mL | Cmax ([1]; 100 mg, Topiramate Alone, read-out: Cmax,ss Geometric LSM): 7500 ng/mL | AUC ([1]; 100 mg, topiramate 100 mg BID alone, day 10, read-out: AUC0-tau,ss): 76500 ng·h/mL | Cmax ([1]; 100 mg, topiramate 100 mg BID alone, day 10, read-out: Cmax,ss): 7700 ng/mL | AUC ([1]; Topiramate and Atogepant, read-out: AUC0-tau,ss Geometric LSM): 70300 ng·h/mL | Cmax ([1]; Topiramate and Atogepant, read-out: Cmax,ss Geometric LSM): 7000 ng/mL | AUC ([1]; topiramate 100 mg BID + atogepant 60 mg QD, day 17, read-out: AUC0-tau,ss): 72600 ng·h/mL | Cmax ([1]; topiramate 100 mg BID + atogepant 60 mg QD, day 17, read-out: Cmax,ss): 7300 ng/mL | delay of median Tmax,ss of topiramate ([1]; coadministered with atogepant): 0.5 h | Cavg,ss [1, 6]: 6000 ng/mL | Cmin,ss [1, 6]: 4700 ng/mL | Tmax,ss (median) [1, 6]: 2.0 h | Cavg,ss [1, 7]: 6400 ng/mL | Cmin,ss [1, 7]: 5200 ng/mL | Tmax,ss (median) [1, 7]: 1.5 h | reduction of topiramate AUC0-tau,ss [1, 8]: 5% | reduction of topiramate Cmax,ss [1, 8]: 6% | Deaths, % ([2]; cohort 2, topiramate + atogepant (n = 24)): (0) % | Deaths, % ([2]; cohort 2, topiramate alone (n = 25)): (0) % | TEAEs leading to discontinuation, % ([2]; human, in vivo): (8.0) % | TESAEs, % ([2]; human, in vivo): (0) % | Treatment-related TEAEs, % ([2]; human, in vivo): (52.0) % | Treatment-related TESAEs, % ([2]; human, in vivo): (0) % | constipation reported ([2]; human, in vivo): 2 participants | nausea reported ([2]; human, in vivo): 3 participants | TEAEs, % ([2]; human, in vivo, 10 days): (64.0) % | elimination half-life [3]: approximately 21 hours

CCC(C)n1ncn(-c2ccc(N3CCN(c4ccc(OCC5COC(Cn6cncn6)(c6ccc(Cl)cc6Cl)O5)cc4)CC3)cc2)c1=O (stereo not drawn) [itraconazole, reference compound]
subjects experiencing constipation (TEAE) [4]: 1 subject | subjects experiencing headache (TEAE) [4]: 2 subjects

C=C[C@H]1C[N@@]2CC[C@H]1C[C@@H]2[C@@H](O)c1ccnc2ccc(OC)cc12 [quinidine gluconate, reference compound]
participants discontinued because of TEAEs (all electrocardiogram QT prolongation) [5]: 10
